This experiment has as its system HIV. Description: MT4 Assay (anti-HIV activity). Format: cell-based. Conditions: Human immunodeficiency virus 1, 96 h, read-out: HIV MT4 Assay IC50, HTLV-1 transformed cell line MT-4, cell titer glo, 10 point dose response curve. The essentials:
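MT-4 cells (HTLV-1 transformed) were used for antiviral activity and cytotoxicity, run in parallel, with luminescence read by CellTiter-Glo 96 hours later. Percent inhibition was expressed against the no-compound control. IC50s came from 10-point curves of 3-4-fold serial dilutions spanning >1000-fold.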
For `Cc1ccc(-c2c(C(OC(C)(C)C)C(=O)O)n(C)c(=O)c3cc(CN(Cc4ccccn4)Cc4ccccn4)ccc23)cc1C` (centres unmarked) [Example 182, 2-(7-((bis(pyridin-2-ylmethyl)amino)methyl)-4-(3,4-dimethylphenyl)-2-methyl-1-oxo-1,2-dihydroisoquinolin-3-yl)-2-(tert-butoxy)acetic acid], the IC50 was determined as 1380 nM.
The same measure for `Cc1c(-c2c(C(OC(C)(C)C)C(=O)O)n(C)c(=O)c3cc(Cl)ccc23)ccc2c1CCCO2` (centres unmarked) [Example 79, 2-(tert-butoxy)-2-[7-chloro-2-methyl-4-(5-methyl-3,4-dihydro-2H-1-benzopyran-6-yl)-1-oxo-1,2-dihydroisoquinolin-3-yl]acetic acid]: 200 nM; for `Cn1c(C(OC(C)(C)C)C(=O)O)c(-c2cccc3ccccc23)c2ccccc2c1=O` (centres unmarked) [Example 29, 2-(tert-butoxy)-2-[2-methyl-4-(naphthalen-1-yl)-1-oxo-1,2-dihydroisoquinolin-3-yl]acetic acid]: 8300 nM; for `Cn1c(C(OC(C)(C)C)C(=O)O)c(-c2ccncc2)c2ccccc2c1=O` (centres unmarked) [Example 48, 2-(tert-butoxy)-2-[2-methyl-1-oxo-4-(pyridin-4-yl)-1,2-dihydroisoquinolin-3-yl]acetic acid]: 50000 nM.
For the compound `Cn1c(C(OC(C)(C)C)C(=O)O)c(-c2ccc(F)cc2)c2ccccc2c1=O` (centres unmarked) [Example 9, 2-(tert-butoxy)-2-[4-(4-fluorophenyl)-2-methyl-1-oxo-1,2-dihydroisoquinolin-3-yl]acetic acid], the IC50 was 1330 nM.

The values are drawn from patent publication US9029391B2 (priority 2011, dated 2015).
